Experimental data as given in patent EP4567035A1, “NOVEL COMPOUND AS HYPOXIA-INDUCIBLE FACTOR 1(HIF-1) INHIBITOR OR VASCULAR ENDOTHELIAL GROWTH FACTOR (VEGF) INHIBITOR, AND PHARMACEUTICAL COMPOSITION COMPRISING SAME” (Nextgen Bioscience Co., Ltd., priority 2022, dated 2024).
Like-named read-outs stand apart in the source and are kept apart here.

Legend:
[1] = molecular target: T1, HIF-1α (Homo sapiens, UniProt Q16665); assay: Analysis of HIF-1α protein expression (Western blot) in ARPE-19 cells under mixed hypoxic condition; assay type: cell-based; settings: concentration range at which HIF-1α expression is reduced by 50% vs untreated control
T1 construct: endogenous in cells; host or cells: ARPE-19 (ATCC CRL-2302)
T1 sequence (Q16665 whole entry): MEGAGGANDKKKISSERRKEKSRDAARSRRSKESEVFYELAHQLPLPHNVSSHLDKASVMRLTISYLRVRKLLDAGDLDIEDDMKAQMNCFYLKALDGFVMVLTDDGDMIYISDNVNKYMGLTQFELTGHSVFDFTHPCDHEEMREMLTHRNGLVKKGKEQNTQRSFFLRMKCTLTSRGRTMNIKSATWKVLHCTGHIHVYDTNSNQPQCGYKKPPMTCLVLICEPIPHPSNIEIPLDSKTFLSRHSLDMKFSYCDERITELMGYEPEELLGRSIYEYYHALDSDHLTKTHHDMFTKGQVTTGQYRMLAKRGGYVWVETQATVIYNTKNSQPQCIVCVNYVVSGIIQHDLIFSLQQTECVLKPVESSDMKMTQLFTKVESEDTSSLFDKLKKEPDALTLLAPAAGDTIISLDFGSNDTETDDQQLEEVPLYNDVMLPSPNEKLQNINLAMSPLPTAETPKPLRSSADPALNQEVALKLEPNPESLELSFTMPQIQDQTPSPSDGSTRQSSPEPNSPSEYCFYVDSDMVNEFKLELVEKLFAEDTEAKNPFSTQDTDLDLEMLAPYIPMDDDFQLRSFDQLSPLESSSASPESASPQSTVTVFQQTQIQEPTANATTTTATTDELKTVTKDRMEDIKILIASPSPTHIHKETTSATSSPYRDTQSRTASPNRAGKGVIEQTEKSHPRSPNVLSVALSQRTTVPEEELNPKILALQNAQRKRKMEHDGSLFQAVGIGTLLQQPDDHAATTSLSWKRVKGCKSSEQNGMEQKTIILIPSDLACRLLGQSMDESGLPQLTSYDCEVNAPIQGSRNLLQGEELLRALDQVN
Method: (§1) ARPE-19 cells (Human retinal pigment epithelial cells, ATCC CRL-2302) were cultured in DMEM/F12 (LM002-08, Welgene) medium containing 10% fetal bovine serum (FBS, 16000-044, Gibco) in an incubator at 37°C with 5% carbon dioxide. When the cells grew sufficiently, they were cultured in experimental culture dishes for protein isolation and medium supernatant acquisition.
(§2) Cells were detached from the culture dish using TrypLE™ Express (Gibco). After centrifugation at 1000 rpm for 3 minutes, the supernatant was removed. The cells were counted and seeded into new culture dishes. Normoxic conditions were maintained by culturing the cells in a 37°C incubator with 5% carbon dioxide, and hypoxic conditions were maintained by culturing the cells in a hypoxic incubator with 1% oxygen, 5% carbon dioxide, and 94% nitrogen gas.
In a disease of macular degeneration, hypoxia is a very important condition, and since the expression of downstream genes is regulated by HIF-1α, a transcription factor that is stabilized in hypoxic conditions, the following experiment was conducted to confirm this.
Mixed hypoxic condition was used for HIF-1α stability experiments, in which hypoxia was induced with 1% oxygen and the stability of HIF-1α was enhanced by treatment with cobalt chloride (CoCl2).
The compounds of each Example were diluted to 0.1 nM, 1 nM, 3 nM, 10 nM, 30 nM, 100 nM, 300 nM, 1 µM, and 10 µM in DMEM/F12 medium without fetal bovine serum, pretreated for 16 hours or 2 hours, and cultured for 1 hour or 24 hours in a mixed hypoxic condition. The cell medium was discarded, and protein lysates were obtained by rapidly treating with protein lysis buffer (RIPA Lysis and Extraction buffer, Thermo Fisher Scientific). LDS (4X Bolt ™ LDS Sample buffer) and reducing agent (10X Bolt ™ Sample Reducing Agent) were added together to the protein lysate, and heated at 70°C for 10 minutes. The lysate was separated by electrophoresis on a 4-12% Bis-Tris gel, transferred to a PVDF membrane, and blocked with 3% BSA (Albumin, Bovine, Fraction V, MPbio). The membrane was incubated overnight at 4°C with a mixture of anti-HIF-1α (ab179483, abcam) and anti-b-actin (MA515739, Invitrogen) antibodies at a ratio of 1:4000. The following day, the membrane was treated with a peroxidase-conjugated secondary antibody for 1 hour at room temperature, and the target protein was expressed using an ECL solution (Clarity ™ Western ECL substrate, Bio-rad) and quantified.
Based on the results of the expression level of HIF-1α in cells treated with compounds diluted from 10 µM to 0.1 nM, the concentration range of the compound at which the expression level of HIF-1α was reduced by 50% or less compared to the untreated control group was derived.

[2] = system: VEGF; assay: Evaluation of VEGF protein secretion level (Human VEGF ELISA) in ARPE-19 cell medium under hypoxic conditions; assay type: cell-based
Method: as §1, §2
The expression of the downstream gene, angiogenesis inducer VEGF, is regulated by HIF-1α, a major transcription factor under hypoxic conditions, and the level of secreted VEGF protein can be quantitatively confirmed through ELISA (Enzyme Linked Immunosorbent Assay, Human VEGF Quantikine ELISA Kit, R&D systems). For this purpose, the following experiment was conducted.
The compounds of each Example were diluted to 0.1 nM, 1 nM, 3 nM, 10 nM, 30 nM, 100 nM, 300 nM, 1 µM and 10 µM in DMEM/F12 medium containing 1% fetal bovine serum, pretreated for 2 hours, and cultured for 24 hours under hypoxic conditions to obtain the cell medium supernatant. The supernatant was centrifuged at 1000 rpm for 3 minutes, and a specific amount was treated with a VEGF ELISA assay kit and the absorbance value was measured at 450 nm to quantitatively confirm the level of VEGF protein (see Table 1 below).
Based on the results of secreted VEGF protein expression levels in cell media treated with compounds diluted at concentrations ranging from 10 µM to 0.1 nM, the concentration range of the compound at which the secreted VEGF protein level was reduced by 50% or less compared to the untreated control group was derived.

[3] = values marked * in the table, mixed hypoxic condition (1% oxygen + CoCl2) for 24 hours, read-out: IC50 HIF-1α, Hypoxia(24h)
[4] = ARPE-19 cells, pretreated 2 hours, 24 hours hypoxic conditions, secreted VEGF in medium supernatant by ELISA, concentration range reducing VEGF by 50% vs untreated control, read-out: IC50 VEGF
[5] = mixed hypoxic condition (1% oxygen + CoCl2) for 1 hour, read-out: IC50 HIF-1α Hypoxia (1 hour)
[6] = ARPE-19 cells, pretreated 2 hours, 24 hours hypoxic conditions, ELISA, read-out: concentration at which the secreted VEGF protein level was suppressed to less than 50%
[7] = Experimental Example 2 (HIF-1α Western blot), read-out: concentration at which the expression level of VEGF was suppressed to less than 50%

DC50 [1, 3] [nM]	IC50 [2, 4] [nM]	DC50 [1, 5] [nM]	IC50 [2, 6] [nM]	IC50 [2, 7] [nM]	Structure (SMILES)
< 100	< 100	–	–	–	O=C(NCc1cc(F)cc(-c2cnn(-c3ccc(F)cc3)c2)c1)c1ncnc2nc(C3CCC(F)(F)C3)[nH]c12 (single isomer, unassigned) [84(E1), 8-(3,3-Difluorocyclopentyl)-N-(3-fluoro-5-(1-(4-fluorophenyl)-1H-pyrazol-4-yl)benzyl)-7H-purine-6-carboxamide]
1000 to 10000	> 10000	–	–	–	O=C(NCc1cc(F)cc(-c2cnn(-c3ccc(F)cc3)c2)c1)c1ncnc2nc(C3CC(F)C3)[nH]c12 (single isomer, unassigned) [102(A), N-(3-Fluoro-5-(1-(4-fluorophenyl)-1H-pyrazol-4-yl)benzyl)-8-(3-fluorocyclobutyl)-7H-purine-6-carboxamide]
100 to 1000	100 to 1000	–	–	–	O=C(NCc1cc(F)cc(-c2cnn(-c3ccc(F)cc3)c2)c1)c1ncnc2nc(C3CC(F)C3)[nH]c12 (single isomer, unassigned) [102(B), N-(3-Fluoro-5-(1-(4-fluorophenyl)-1H-pyrazol-4-yl)benzyl)-8-(3-fluorocyclobutyl)-7H-purine-6-carboxamide]
> 10000	> 10000	–	–	–	COC(=O)C1CC(c2nc3ncnc(C(=O)NCc4cc(F)cc(-c5cnn(-c6ccc(F)cc6)c5)c4)c3[nH]2)C1 (single isomer, unassigned) [103(A), Methyl 3-(6-((3-fluoro-5-(1-(4-fluorophenyl)-1H-pyrazol-4-yl)benzyl)carbamoyl)-7H-purin-8-yl)cyclobutanecarboxylate]
> 10000	> 10000	–	–	–	COC(=O)C1CC(c2nc3ncnc(C(=O)NCc4cc(F)cc(-c5cnn(-c6ccc(F)cc6)c5)c4)c3[nH]2)C1 (single isomer, unassigned) [103(B), Methyl 3-(6-((3-fluoro-5-(1-(4-fluorophenyl)-1H-pyrazol-4-yl)benzyl)carbamoyl)-7H-purin-8-yl)cyclobutanecarboxylate]
< 100	100 to 1000	–	–	–	O=C(NCc1cc(F)cc(-c2cnn(-c3ccc(F)cc3)c2)c1)c1ncnc2nc(C3CCC(F)C3)[nH]c12 (single isomer, unassigned) [110(A), N-(3-Fluoro-5-(1-(4-fluorophenyl)-1H-pyrazol-4-yl)benzyl)-8-(3-fluorocyclopentyl)-7H-purine-6-carboxamide]
< 100	100 to 1000	–	–	–	O=C(NCc1cc(F)cc(-c2cnn(-c3ccc(F)cc3)c2)c1)c1ncnc2nc(C3CCC(F)C3)[nH]c12 (single isomer, unassigned) [110(B), N-(3-Fluoro-5-(1-(4-fluorophenyl)-1H-pyrazol-4-yl)benzyl)-8-(3-fluorocyclopentyl)-7H-purine-6-carboxamide]
–	100 to 1000	< 100	–	–	O=C(NCc1cc(F)cc(-c2cnn(C(F)(F)F)c2)c1)c1ncnc2nc(C3CCCC3)[nH]c12 [Example 1, 8-Cyclopentyl-N-(3-fluoro-5-(1-(trifluoromethyl)-1H-pyrazol-4-yl)benzyl)-7H-purine-6-carboxamide]
–	100 to 1000	< 100	–	–	O=C(NCc1cc(F)cc(-c2cnn(CC(F)F)c2)c1)c1ncnc2nc(C3CCCC3)[nH]c12 [Example 2, 8-Cyclopentyl-N-(3-(1-(2,2-difluoroethyl)-1H-pyrazol-4-yl)-5-fluorobenzyl)-7H-purine-6-carboxamide]
–	100 to 1000	< 100	–	–	O=C(NCc1cc(F)cc(-c2cnn(CC(F)(F)F)c2)c1)c1ncnc2nc(C3CCCC3)[nH]c12 [Example 3, 8-Cyclopentyl-N-(3-fluoro-5-(1-(2,2,2-trifluoroethyl)-1H-pyrazol-4-yl)benzyl)-7H-purine-6-carboxamide]
–	1000 to 10000	100 to 1000	–	–	C[C@H](NC(=O)c1ncnc2nc(C3CCCC3)[nH]c12)c1cccc(-c2cnn(C)c2)c1 [Example 4, (S)-8-cyclopentyl-N-(1-(3-(1-methyl-1H-pyrazol-4-yl)phenyl)ethyl)-7H-purine-6-carboxamide]
–	1000 to 10000	100 to 1000	–	–	Cn1cc(C(=O)Nc2cc(F)cc(CNC(=O)c3ncnc4nc(C5CCCC5)[nH]c34)c2)cn1 [Example 5, 8-Cyclopentyl-N-(3-fluoro-5-(1-methyl-1H-pyrazole-4-carboxamido)benzyl)-7H-purine-6-carboxamide]
–	100 to 1000	< 100	–	–	O=C(NCc1cc(F)cc(-c2cnn(-c3ccccc3)c2)c1)c1ncnc2nc(C3CCCC3)[nH]c12 [Example 7, 8-Cyclopentyl-N-(3-fluoro-5-(1-phenyl-1H-pyrazol-4-yl)benzyl)-7H-purine-6-carboxamide]
–	100 to 1000	< 100	–	–	Cn1cc(Nc2cc(F)cc(CNC(=O)c3ncnc4nc(C5CCCC5)[nH]c34)c2)cn1 [Example 8, 8-Cyclopentyl-N-(3-fluoro-5-((1-methyl-1H-pyrazol-4-yl)amino)benzyl)-7H-purine-6-carboxamide]
–	100 to 1000	< 100	–	–	O=C(NCc1cc(F)cc(-c2cnn(Cc3ccccc3)c2)c1)c1ncnc2nc(C3CCCC3)[nH]c12 [Example 9, N-(3-(1-benzyl-1H-pyrazol-4-yl)-5-fluorobenzyl)-8-cyclopentyl-7H-purine-6-carboxamide]
–	100 to 1000	< 100	–	–	O=C(NCc1cc(F)cc(Nc2cccnc2)c1)c1ncnc2nc(C3CCCC3)[nH]c12 [Example 10, 8-Cyclopentyl-N-(3-fluoro-5-(pyridin-3-ylamino)benzyl)-7H-purine-6-carboxamide]
–	< 100	< 100	< 100	< 100	O=C(NCc1cc(F)cc(-c2cn[nH]c2)c1)c1ncnc2nc(C3CCCC3)[nH]c12 [Example 11, 8-Cyclopentyl-N-(3-fluoro-5-(1H-pyrazol-4-yl)benzyl)-7H-purine-6-carboxamide]
–	< 100	< 100	< 100	< 100	O=C(NCc1cc(F)cc(-c2cnn(-c3ccncc3)c2)c1)c1ncnc2nc(C3CCCC3)[nH]c12 [Example 12, 8-Cyclopentyl-N-(3-fluoro-5-(1-(pyridin-4-yl)-1H-pyrazol-4-yl)benzyl)-7H-purine-6-carboxamide]
–	100 to 1000	< 100	–	–	O=C(NCc1cccc(F)c1)c1ncnc2nc(C3CCCC3)[nH]c12 [Example 13, 8-Cyclopentyl-N-(3-fluorobenzyl)-7H-purine-6-carboxamide]
–	100 to 1000	< 100	–	–	O=C(NCc1cc(F)cc(Nc2ccccc2)c1)c1ncnc2nc(C3CCCC3)[nH]c12 [Example 15, 8-Cyclopentyl-N-(3-fluoro-5-(phenylamino)benzyl)-7H-purine-6-carboxamide]
–	–	–	< 100	< 100	O=C(NCc1cc(F)cc(-c2cnn(-c3ccc(F)cc3)c2)c1)c1ncnc2nc(C3CCC(F)(F)C3)[nH]c12 (stereo not shown) [Example 84, 8-(3,3-Difluorocyclopentyl)-N-(3-fluoro-5-(1-(4-fluorophenyl)-1H-pyrazol-4-yl)benzyl)-7H-purine-6-carboxamide]
